Patent US6310091A, “Fungicidal saponin, CAY-1, and isolation thereof from Capsium species fruit” (The United States of America as represented by the …, priority 2000, dated 2001)
Where “and” joins values, the source holds several entries; their conditions need not be identical. Equal entries are not always repeated. Where two headings read alike, the source gives them in different places.

Columns and labels:
Assay type in all cases: cell-based
Aspergillus parasiticus = assay: Fungicidal bioassay on nongerminated and germinating conidia of A. parasiticus; settings: for activity at 5 µM / activity at 10 µM / activity at 15 µM / activity at 20 µM / minimal effective concentration: Aspergillus parasiticus, 0.5 h; for activity at 5 µM / activity at 10 µM / activity at 15 µM / activity at 20 µM: read-out: Percent of Mean Control; for viability reduction: 20.0 μM (24.8 μg/ml)
Protocol: 1. Filamentous fungi. Filamentous fungi used in bioassays included Aspergillus flavus, A. fumigatus, A. niger, A. parasiticus and Fusarium oxysporum. The fungicidal properties of CAY-1 for the nongerminated and germinating conidia of these fungi were determined separately as described by De Lucca et al. [Med. Mycol., 36:291-298 (1998)] and De Lucca et al. [Antimicrob. Agents Chemother. 43:371-373 (1999)]. […] Two separate experiments were conducted in each medium (n=8 per medium).
A suspension of the aforementioned fungi were prepared separately in the appropriate medium. Conidia (10^4 conidia/ml) were used immediately for the nongerminated conidial assays while conidia (10^5 conidia/ml) were incubated for 7.5 hours at 30° C. to obtain germinating conidia. Serial dilutions of CAY-1 were prepared in the appropriate medium (totaling 225 μl) to which was added 25 μl of the conidial suspensions. The control consisted of 225 μl of medium and 25 μl of the conidial suspension. After mixing, the samples were incubated for 30 min (30° C.). Samples were then spread on potato dextrose agar plates which were incubated at 30° C. for 24 hours. Colonies were then enumerated.
Statistical analyses. ANOVA analyses on ranks for nonparametric data were performed for the bioassays described in this example.

Candida albicans = assay: Effect on C. albicans viability (NCCLS broth dilution M-27A)
Protocol: 2. Candida albicans. The effect of CAY-1 on C. albicans viability was determined by the NCCLS methods (National Committee for Clinical Laboratory Standards, Wayne, Pa., 1997. Reference method for broth dilution antifungal susceptibility testing of yeasts. Approved standard M-27A, herein incorporated by reference).

Pneumocystis carinii = assay: Effect on Pneumocystis carinii viability (ATP-driven bioluminescent assay); settings: for activity at 10 µM / activity at 2.5 µM / activity at 5 µM / activity at 20 µM / activity at 40 µM / activity at 80 µM: read-out: Percent of Control Mean; for activity at 2.5 µM: 3.2 μg/ml; for activity at 5 µM: 6.3 μg/ml; for activity at 20 µM: 25 μg/ml; for activity at 40 µM: 50 μg/ml; for activity at 80 µM: 100 μg/ml
Protocol: 3. Pneumocystis carinii. The effect of CAY-1 on Pneumocystis carinii was determined as described previously [Cushion et al., Antimicrob. Agents Chemother., 1997, 41:379-384, herein incorporated by reference]. This assay is based on an ATP-driven bioluminescent reaction and was used to determine the concentration of CAY-1 which decreased the P. carinii ATP pools.

[1] = nongerminated, RPMI-1640, 5.0 μM
[2] = nongerminated, RPMI-1640, 10.0 μM
[3] = nongerminated, RPMI-1640, 15.0 μM
[4] = nongerminated, RPMI-1640, 20.0 μM
[5] = Pneumocystis carinii, 24 h, Day 1
[6] = Pneumocystis carinii, 48 h, Day 2
[7] = Pneumocystis carinii, 72 h, Day 3

CC1CCC2(OC1)OC1CC3C4CCC5CC(OC6OC(CO)C(OC7OC(CO)C(O)C(OC8OC(CO)C(O)C(OC9OC(CO)C(O)C(O)C9O)C8O)C7OC7OC(CO)C(O)C(O)C7O)C(O)C6O)C(O)CC5(C)C4CCC3(C)C1C2C (stereo not drawn) [CAY-1]
activity at 5 µM (Aspergillus parasiticus; nongerminated, 1% PDB, 5.0 μM): 97.3% | activity at 10 µM (Aspergillus parasiticus; nongerminated, 1% PDB, 10.0 μM): 100% | activity at 15 µM (Aspergillus parasiticus; nongerminated, 1% PDB, 15.0 μM): 93.9% | activity at 20 µM (Aspergillus parasiticus; nongerminated, 1% PDB, 20.0 μM): 94.5% | activity at 5 µM (Aspergillus parasiticus; [1]): 103% | activity at 10 µM (Aspergillus parasiticus; [2]): 103% | activity at 15 µM (Aspergillus parasiticus; [3]): 87.9% | activity at 20 µM (Aspergillus parasiticus; [4]): 97.6% | minimal effective concentration (Aspergillus parasiticus; read-out: concentration required for significant viability reduction): 12.4 µg/mL | minimal effective concentration (Aspergillus parasiticus; germinating conidia, 1% PDB, p=0.001, read-out: concentration significantly reducing viability): 5 µM and 6.2 µg/mL | minimal effective concentration (Aspergillus parasiticus; germinating conidia, RPMI-1640, p=0.0002, read-out: concentration required for significant viability reduction): 10 µM | Mean No. of Colonies (Aspergillus parasiticus; germinated, RPMI-1640, 5.0 μM): 40.1 | Mean No. of Colonies (Aspergillus parasiticus; germinated, RPMI-1640, 10.0 μM): 12.4 | Mean No. of Colonies (Aspergillus parasiticus; germinated, RPMI-1640, 15.0 μM): 9.0 | Mean No. of Colonies (Aspergillus parasiticus; germinated, RPMI-1640, 20.0 μM): 5.7 | viability reduction (Aspergillus parasiticus; germinating conidia, 1% PDB): 85% | viability reduction (Aspergillus parasiticus; germinating conidia, RPMI-1640): 92% | Mean No. of Colonies (Aspergillus parasiticus; germinating, 1% PDB, 5.0 μM): 95.5 | Mean No. of Colonies (Aspergillus parasiticus; germinating, 1% PDB, 10.0 μM): 43.3 | Mean No. of Colonies (Aspergillus parasiticus; germinating, 1% PDB, 15.0 μM): 32.5 | Mean No. of Colonies (Aspergillus parasiticus; germinating, 1% PDB, 20.0 μM): 25.5 | viability of nongerminated conidia (Aspergillus parasiticus; nongerminated conidia, either test medium): not affected | Mean No. of Colonies (Aspergillus parasiticus; nongerminated, 1% PDB, 5.0 μM): 53.1 | Mean No. of Colonies (Aspergillus parasiticus; nongerminated, 1% PDB, 10.0 μM): 54.6 | Mean No. of Colonies (Aspergillus parasiticus; nongerminated, 1% PDB, 15.0 μM): 51.3 | Mean No. of Colonies (Aspergillus parasiticus; nongerminated, 1% PDB, 20.0 μM): 51.9 | Mean No. of Colonies (Aspergillus parasiticus; [1]): 42.5 | Mean No. of Colonies (Aspergillus parasiticus; [2]): 42.5 | Mean No. of Colonies (Aspergillus parasiticus; [3]): 36.4 | Mean No. of Colonies (Aspergillus parasiticus; [4]): 40.4 | IC50 (Candida albicans): 3.1 µM and 3.8 µg/mL | IC90 (Candida albicans): 6.2 µM and 7.7 µg/mL | minimal effective concentration (Candida albicans; read-out: lowest effective level in vitro): ~3 µM | effectiveness compared with pentamidine (Pneumocystis carinii; 25 and 50 μg/ml (20.2 and 40.3 μM) vs pentamidine 10 μg/ml, 29 μM): as, or more effective, than pentamidine | IC50 (Pneumocystis carinii; Pneumocystis carinii): 11.8 µg/mL and 9.5 µM | activity at 10 µM (Pneumocystis carinii; Pneumocystis carinii, 24 h): 43.1% | activity at 2.5 µM (Pneumocystis carinii; [5]): 94.7% | activity at 5 µM (Pneumocystis carinii; [5]): 70.1% | activity at 20 µM (Pneumocystis carinii; [5]): 18% | activity at 40 µM (Pneumocystis carinii; [5]): 10% | activity at 80 µM (Pneumocystis carinii; [5]): 3.1% | killing at 10 µM (Pneumocystis carinii; Pneumocystis carinii, 48 h, read-out: P. carinii killed): ≥ 34.6% | activity at 10 µM (Pneumocystis carinii; Pneumocystis carinii, 48 h): 11.8% | activity at 2.5 µM (Pneumocystis carinii; [6]): 98.2% | activity at 5 µM (Pneumocystis carinii; [6]): 56.9% | activity at 20 µM (Pneumocystis carinii; [6]): 5.5% | activity at 40 µM (Pneumocystis carinii; [6]): 2.2% | activity at 80 µM (Pneumocystis carinii; [6]): 0.9% | killing at 40.3 µM (Pneumocystis carinii; Pneumocystis carinii, 72 h, read-out: P. carinii cells killed): 93% | activity at 10 µM (Pneumocystis carinii; Pneumocystis carinii, 72 h): 12.1% | activity at 2.5 µM (Pneumocystis carinii; [7]): 99.8% | activity at 5 µM (Pneumocystis carinii; [7]): 46.6% | activity at 20 µM (Pneumocystis carinii; [7]): 3.3% | activity at 40 µM (Pneumocystis carinii; [7]): 1% | activity at 80 µM (Pneumocystis carinii; [7]): 0.3% | minimal effective concentration (Pneumocystis carinii; Pneumocystis carinii, read-out: concentration at which lethality begins): 5 µM | minimal effective concentration (Pneumocystis carinii; Pneumocystis carinii, read-out: lowest effective level in vitro): ~5 µM
